Counter-ions that a name gives are not always drawn. Like-named read-outs stand apart in the source and are kept apart here.
Experiments:
[1] = test system: NCI-H292 lung cancer cells; experiment: FDA drug screening, complete media vs cholesterol-free media without statin (TABLE 1); format: cell-based, human
[2] = test system: NCI-H292 lung cancer cells; experiment: FDA drug screening, complete media vs cholesterol-free media with simvastatin (TABLE 2); format: cell-based, human
[3] = NCI-H292 cells, cholesterol-free media without statin, FDA drug library screen
[4] = NCI-H292 cells, complete media, FDA drug library screen
[5] = complete vs cholesterol-free media, >0 enhanced anti-cancer activity, about 0 neutral, <0 antagonist
[6] = complete media minus cholesterol-free media + simvastatin, >0 enhanced anti-cancer activity, about 0 neutral, <0 antagonist
[7] = NCI-H292 cells in cholesterol-free media without statin
[8] = NCI-H292 cells in complete media
[9] = NCI-H292 cells, FDA library drug in cholesterol-free media with simvastatin 0.04 μM
[10] = NCI-H292 cells, FDA library drug in complete media
[11] = NCI-H292 cells, cholesterol-free media without statin
[12] = NCI-H292 cells, FDA drug library screen, cholesterol-free media with simvastatin 0.04 μM
[13] = NCI-H292 cells, FDA drug library screen, complete media
[14] = complete media vs cholesterol-free media + simvastatin (0.04 μM), >0 enhanced anti-cancer activity, about 0 neutral, <0 antagonist
[15] = complete vs cholesterol-free media, greater than 0 enhanced anti-cancer activity, about 0 neutral, below 0 antagonists
[16] = Complete minus Cholesterol-free, greater than 0 enhanced anti-cancer activity, about 0 neutral, below 0 antagonists

CN1Cc2c(Cl)cc(Cl)cc2[C@H](c2cccc(S(=O)(=O)NCCOCCOCCNC(=O)NCCCCNC(=O)NCCOCCOCCNS(=O)(=O)c3cccc([C@@H]4CN(C)Cc5c(Cl)cc(Cl)cc54)c3)c2)C1 [Tenapanor]
Cholesterol-free [1, 3]: 0.6884
Complete [1, 4]: 0.8628
Difference [1, 5]: 0.17
Cholesterol-free media + simvastatin (0.04 μM) ([2]; NCI-H292 cells, cholesterol-free media with simvastatin 0.04 μM, cell growth value in FDA drug screen): 1.602
Complete Media ([2]; NCI-H292 cells, complete media, cell growth value in FDA drug screen): 1.62
Difference [2, 6]: 0.02

Cc1cc(N2CCN([C@@H]3CN[C@H](C(=O)N4CCSC4)C3)CC2)n(-c2ccccc2)n1 [Teneligliptin (hydrobromide)]
Difference ([1]; Complete minus Cholesterol-free, […]): −0.56
Cholesterol-free [1, 7]: 1.45
Complete [1, 8]: 0.8858
Cholesterol-free media + simvastatin (0.04 μM) [2, 9]: 1.564
Complete Media [2, 10]: 1.115
Difference ([2]; complete media vs cholesterol-free media + simvastatin (0.04 μM), […]): −0.45

Cc1cc(N2CCN([C@@H]3CN[C@H](C(=O)N4CCSC4)C3)CC2)n(-c2ccccc2)n1 [Teneligliptin]
Cholesterol-free [1, 11]: 1.328
Complete ([1]; NCI-H292 cells, complete media): 0.9852
Difference ([1]; complete vs cholesterol-free media, […]): −0.34
Cholesterol-free media + simvastatin (0.04 μM) [2, 12]: 0.6861
Complete Media [2, 13]: 1.012
Difference ([2]; complete media minus cholesterol-free media + simvastatin, […]): 0.33

COc1cc([C@@H]2c3cc4c(cc3[C@@H](O[C@@H]3O[C@@H]5CO[C@@H](c6cccs6)O[C@H]5[C@H](O)[C@H]3O)[C@H]3COC(=O)[C@H]23)OCO4)cc(OC)c1O [Teniposide]
Difference ([1]; Complete minus Cholesterol-free, greater than 0 enhanced anti-cancer activity, about 0 neutral, below 0 antagonist): −0.09
Cholesterol-free ([1]; NCI-H292 cells, FDA drug library screen, cholesterol-free media without statin): 0.1831
Complete [1, 13]: 0.09739
Cholesterol-free media + simvastatin (0.04 μM) ([2]; NCI-H292 cells, drug in cholesterol-free media with simvastatin 0.04 μM): 0.3807
Complete Media ([2]; NCI-H292 cells, drug in complete media): 0.1883
Difference [2, 14]: −0.19

CC(C)OC(=O)OCOP(=O)(CO[C@H](C)Cn1cnc2c(N)ncnc21)OCOC(=O)OC(C)C.O=C(O)/C=C/C(=O)O [Tenofovir (Disoproxil Fumarate)]
Cholesterol-free [1, 11]: 1.163
Complete ([1]; NCI-H292 cells, complete media): 0.7425
Difference [1, 15]: −0.42
Cholesterol-free media + simvastatin (0.04 μM) [2, 9]: 1.321
Complete Media [2, 10]: 0.7221
Difference [2, 14]: −0.60

CC(C)OC(=O)OCOP(=O)(CO[C@H](C)Cn1cnc2c(N)ncnc21)OCOC(=O)OC(C)C [Tenofovir (Disoproxil)]
Difference [1, 16]: −0.65
Cholesterol-free [1, 7]: 1.348
Complete [1, 8]: 0.7009
Cholesterol-free media + simvastatin (0.04 μM) [2, 9]: 1.242
Complete Media [2, 10]: 0.9076
Difference [2, 14]: −0.33

C[C@H](Cn1cnc2c(N)ncnc21)OCP(=O)(O)O.O [Tenofovir (hydrate)]
Cholesterol-free [1, 3]: 0.8777
Complete [1, 4]: 1.281
Difference [1, 5]: 0.40
Cholesterol-free media + simvastatin (0.04 μM) [2, 12]: 1.824
Complete Media [2, 13]: 2.099
Difference [2, 6]: 0.27

CC(C)OC(=O)[C@H](C)N[P@](=O)(CO[C@H](C)Cn1cnc2c(N)ncnc21)Oc1ccccc1 [Tenofovir alafenamide fumarate]
Cholesterol-free [1]: 0.8261
Complete [1]: 0.7078
Difference [1]: −0.12
Cholesterol-free media + simvastatin (0.04 μM) [2]: 0.9223
Complete Media [2]: 0.8712
Difference [2]: −0.05

CC(C)OC(=O)[C@H](C)N[P@](=O)(CO[C@H](C)Cn1cnc2c(N)ncnc21)Oc1ccccc1 [Tenofovir alafenamide]
Cholesterol-free [1]: 1.21
Complete [1]: 0.7227
Difference [1]: −0.49
Cholesterol-free media + simvastatin (0.04 μM) [2]: 0.7269
Complete Media [2]: 0.65
Difference [2]: −0.08

C[C@H](Cn1cnc2c(N)ncnc21)OCP(=O)(O)O [Tenofovir]
Difference [1, 16]: −0.62
Cholesterol-free [1, 7]: 1.637
Complete [1, 8]: 1.013
Cholesterol-free media + simvastatin (0.04 μM) [2, 12]: 0.8374
Complete Media [2, 13]: 1.066
Difference [2, 6]: 0.23

CN1C(C(=O)Nc2ccccn2)=C(O)c2sccc2S1(=O)=O [Tenoxicam]
Cholesterol-free [1, 11]: 1.354
Complete ([1]; NCI-H292 cells, complete media): 0.9821
Difference [1, 15]: −0.37
Cholesterol-free media + simvastatin (0.04 μM) [2, 12]: 0.6836
Complete Media [2, 13]: 0.8819
Difference [2, 6]: 0.20
